tested on: p21 promoter-luciferase construct; experiment: p21 reporter gene induction (HeLa cells, p21 promoter-luciferase construct); settings: relative gene level of p21 compared to MS275 at 3 μM;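 further: transfected HeLa cells exposed to compound for 15 h, luciferase luminescence read from lysates, p21 promoter lacks p53 site, proxy for cellular HDAC1/2/3 inhibition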
Description: As a surrogate for in-cell HDAC1/2/3 inhibition, p21 induction was used as a counterscreen to evaluate the selectivity of the compounds in the present invention toward HDAC6 or HDAC8.
The novel compounds of the present invention were tested for their ability to induce p21 gene expression using a reporter gene assay involving HeLa cells transfected with a p21 promoter-luciferase construct. The p21 promoter contained the Sp1/Sp3 binding site for HDAC but not the upstream p53 binding site. Briefly, the day before transfection, HeLa cells were seeded at 11,000 cells/well in a 96-well culture plate and incubated at 37° C. in 5% CO2 overnight. A transfection media was prepared prior to transfection according to the following procedure: (1) 5 μl serum-free DMEM, 0.15 μl Fugene 6 reagent, 40 ng p21-luc, 10 ng GFP were mixed gently and incubated at rt for 30 minutes; (2), then 98 μl DMEM (with 10% FBS, 1% penicillin and streptomycin) was added to the DNA: Fugene 6 reagent complex and mixed gently. For transfection, the medium was removed and replaced with 100 μl/well transfection media which was prepared according to the procedure above. After incubating the cells for 24 hours at 37° C. in 5% CO2, fresh media and test compounds were added to the wells and the cells further incubated for 15 hours at 37° C. in 5% CO2. Cells were lysed by adding 80 μl/well of a cell culture lysis reagent (Promega). 50 μl of each lysate was taken for GFP detection using an excitation wavelength of 486 nm and detection at 527 nm. 100 μl luciferase assay reagent (Promega) was then added to every 20 μl cell lysate for luminometer detection.

SMILES | p21 RP3
O=C(NO)c1ccc(NC2CCN(c3cccc(C(F)(F)F)c3)C2=O)cc1 (stereo not shown) [Example 11, N-Hydroxy-4-[2-oxo-1-(3-trifluoromethyl-phenyl)-pyrrolidin-3-ylamino]-benzamide] | 0.39
CC(C)c1cccc(N2CCC(Nc3ccc(C(=O)NO)cc3)C2=O)c1 (stereo not shown) [Example 13, N-Hydroxy-4-[1-(3-isopropyl-phenyl)-2-oxo-pyrrolidin-3-ylamino]-benzamide] | 0.29
CC(C)c1ccc(N2CCC(Nc3ccc(C(=O)NO)cc3)C2=O)cc1 (stereo not shown) [Example 14, N-Hydroxy-4-[1-(4-isopropyl-phenyl)-2-oxo-pyrrolidin-3-ylamino]-benzamide] | 0.13
CC(C)(C)c1ccc(N2CCC(Nc3ccc(C(=O)NO)cc3)C2=O)cc1 (stereo not shown) [Example 16, 4-[1-(4-tert-Butyl-phenyl)-2-oxo-pyrrolidin-3-ylamino]-N-hydroxy-benzamide] | 0.17
CS(=O)(=O)c1ccc(N2CCC(Nc3ccc(C(=O)NO)cc3)C2=O)cc1 (stereo not shown) [Example 17, N-Hydroxy-4-[1-(4-methanesulfonyl-phenyl)-2-oxo-pyrrolidin-3-ylamino]-benzamide] | 0.00
N#Cc1cccc(N2CCC(Nc3ccc(C(=O)NO)cc3)C2=O)c1 (stereo not shown) [Example 18, 4-[1-(3-Cyano-phenyl)-2-oxo-pyrrolidin-3-ylamino]-N-hydroxy-benzamide] | 0.61
N#Cc1ccc(N2CCC(Nc3ccc(C(=O)NO)cc3)C2=O)cc1 (stereo not shown) [Example 19, 4-[1-(4-Cyano-phenyl)-2-oxo-pyrrolidin-3-ylamino]-N-hydroxy-benzamide] | 0.46
O=C(NO)c1ccc(NC2CCN(c3ccc(F)c(Cl)c3)C2=O)cc1 (stereo not shown) [Example 20, 4-[1-(3-Chloro-4-fluoro-phenyl)-2-oxo-pyrrolidin-3-ylamino]-N-hydroxy-benzamide] | 0.37

same assay, conditions: relative level of p21 compared to MS275 at 10 μM

SMILES | p21 RP10
O=C(NO)c1ccc(NC2CCN(c3cccc(C(F)(F)F)c3)C2=O)cc1 (stereo not shown) [Example 11, N-Hydroxy-4-[2-oxo-1-(3-trifluoromethyl-phenyl)-pyrrolidin-3-ylamino]-benzamide] | 0.08
CC(C)c1cccc(N2CCC(Nc3ccc(C(=O)NO)cc3)C2=O)c1 (stereo not shown) [Example 13, N-Hydroxy-4-[1-(3-isopropyl-phenyl)-2-oxo-pyrrolidin-3-ylamino]-benzamide] | 0.19
CC(C)c1ccc(N2CCC(Nc3ccc(C(=O)NO)cc3)C2=O)cc1 (stereo not shown) [Example 14, N-Hydroxy-4-[1-(4-isopropyl-phenyl)-2-oxo-pyrrolidin-3-ylamino]-benzamide] | 0.07
CC(C)(C)c1ccc(N2CCC(Nc3ccc(C(=O)NO)cc3)C2=O)cc1 (stereo not shown) [Example 16, 4-[1-(4-tert-Butyl-phenyl)-2-oxo-pyrrolidin-3-ylamino]-N-hydroxy-benzamide] | 0.12
CS(=O)(=O)c1ccc(N2CCC(Nc3ccc(C(=O)NO)cc3)C2=O)cc1 (stereo not shown) [Example 17, N-Hydroxy-4-[1-(4-methanesulfonyl-phenyl)-2-oxo-pyrrolidin-3-ylamino]-benzamide] | 0.02
N#Cc1cccc(N2CCC(Nc3ccc(C(=O)NO)cc3)C2=O)c1 (stereo not shown) [Example 18, 4-[1-(3-Cyano-phenyl)-2-oxo-pyrrolidin-3-ylamino]-N-hydroxy-benzamide] | 0.02
N#Cc1ccc(N2CCC(Nc3ccc(C(=O)NO)cc3)C2=O)cc1 (stereo not shown) [Example 19, 4-[1-(4-Cyano-phenyl)-2-oxo-pyrrolidin-3-ylamino]-N-hydroxy-benzamide] | 0.00
O=C(NO)c1ccc(NC2CCN(c3ccc(F)c(Cl)c3)C2=O)cc1 (stereo not shown) [Example 20, 4-[1-(3-Chloro-4-fluoro-phenyl)-2-oxo-pyrrolidin-3-ylamino]-N-hydroxy-benzamide] | 0.10

same assay, conditions: relative level of p21 compared to MS275 at 30 μM

SMILES | p21 RP30
O=C(NO)c1ccc(NC2CCN(c3cccc(C(F)(F)F)c3)C2=O)cc1 (stereo not shown) [Example 11, N-Hydroxy-4-[2-oxo-1-(3-trifluoromethyl-phenyl)-pyrrolidin-3-ylamino]-benzamide] | 0.04
CC(C)c1cccc(N2CCC(Nc3ccc(C(=O)NO)cc3)C2=O)c1 (stereo not shown) [Example 13, N-Hydroxy-4-[1-(3-isopropyl-phenyl)-2-oxo-pyrrolidin-3-ylamino]-benzamide] | 0.09
CC(C)c1ccc(N2CCC(Nc3ccc(C(=O)NO)cc3)C2=O)cc1 (stereo not shown) [Example 14, N-Hydroxy-4-[1-(4-isopropyl-phenyl)-2-oxo-pyrrolidin-3-ylamino]-benzamide] | 0.06
CC(C)(C)c1ccc(N2CCC(Nc3ccc(C(=O)NO)cc3)C2=O)cc1 (stereo not shown) [Example 16, 4-[1-(4-tert-Butyl-phenyl)-2-oxo-pyrrolidin-3-ylamino]-N-hydroxy-benzamide] | −0.03
CS(=O)(=O)c1ccc(N2CCC(Nc3ccc(C(=O)NO)cc3)C2=O)cc1 (stereo not shown) [Example 17, N-Hydroxy-4-[1-(4-methanesulfonyl-phenyl)-2-oxo-pyrrolidin-3-ylamino]-benzamide] | 0.02
N#Cc1cccc(N2CCC(Nc3ccc(C(=O)NO)cc3)C2=O)c1 (stereo not shown) [Example 18, 4-[1-(3-Cyano-phenyl)-2-oxo-pyrrolidin-3-ylamino]-N-hydroxy-benzamide] | −0.01
N#Cc1ccc(N2CCC(Nc3ccc(C(=O)NO)cc3)C2=O)cc1 (stereo not shown) [Example 19, 4-[1-(4-Cyano-phenyl)-2-oxo-pyrrolidin-3-ylamino]-N-hydroxy-benzamide] | −0.03
O=C(NO)c1ccc(NC2CCN(c3ccc(F)c(Cl)c3)C2=O)cc1 (stereo not shown) [Example 20, 4-[1-(3-Chloro-4-fluoro-phenyl)-2-oxo-pyrrolidin-3-ylamino]-N-hydroxy-benzamide] | 0.12

molecular target: T1, HDAC6 (Homo sapiens, UniProt Q9UBN7); experiment: Tubulin acetylation cytoblot assay (A549 cells); assay type: cell-based; settings: 17-18 h incubation, tubulin acetylation as marker of HDAC6 inhibition, read-out: Tub-Ac EC50
T1 construct: endogenous in cells; host or cells: A549 cells
T1 sequence (Q9UBN7 1-1215): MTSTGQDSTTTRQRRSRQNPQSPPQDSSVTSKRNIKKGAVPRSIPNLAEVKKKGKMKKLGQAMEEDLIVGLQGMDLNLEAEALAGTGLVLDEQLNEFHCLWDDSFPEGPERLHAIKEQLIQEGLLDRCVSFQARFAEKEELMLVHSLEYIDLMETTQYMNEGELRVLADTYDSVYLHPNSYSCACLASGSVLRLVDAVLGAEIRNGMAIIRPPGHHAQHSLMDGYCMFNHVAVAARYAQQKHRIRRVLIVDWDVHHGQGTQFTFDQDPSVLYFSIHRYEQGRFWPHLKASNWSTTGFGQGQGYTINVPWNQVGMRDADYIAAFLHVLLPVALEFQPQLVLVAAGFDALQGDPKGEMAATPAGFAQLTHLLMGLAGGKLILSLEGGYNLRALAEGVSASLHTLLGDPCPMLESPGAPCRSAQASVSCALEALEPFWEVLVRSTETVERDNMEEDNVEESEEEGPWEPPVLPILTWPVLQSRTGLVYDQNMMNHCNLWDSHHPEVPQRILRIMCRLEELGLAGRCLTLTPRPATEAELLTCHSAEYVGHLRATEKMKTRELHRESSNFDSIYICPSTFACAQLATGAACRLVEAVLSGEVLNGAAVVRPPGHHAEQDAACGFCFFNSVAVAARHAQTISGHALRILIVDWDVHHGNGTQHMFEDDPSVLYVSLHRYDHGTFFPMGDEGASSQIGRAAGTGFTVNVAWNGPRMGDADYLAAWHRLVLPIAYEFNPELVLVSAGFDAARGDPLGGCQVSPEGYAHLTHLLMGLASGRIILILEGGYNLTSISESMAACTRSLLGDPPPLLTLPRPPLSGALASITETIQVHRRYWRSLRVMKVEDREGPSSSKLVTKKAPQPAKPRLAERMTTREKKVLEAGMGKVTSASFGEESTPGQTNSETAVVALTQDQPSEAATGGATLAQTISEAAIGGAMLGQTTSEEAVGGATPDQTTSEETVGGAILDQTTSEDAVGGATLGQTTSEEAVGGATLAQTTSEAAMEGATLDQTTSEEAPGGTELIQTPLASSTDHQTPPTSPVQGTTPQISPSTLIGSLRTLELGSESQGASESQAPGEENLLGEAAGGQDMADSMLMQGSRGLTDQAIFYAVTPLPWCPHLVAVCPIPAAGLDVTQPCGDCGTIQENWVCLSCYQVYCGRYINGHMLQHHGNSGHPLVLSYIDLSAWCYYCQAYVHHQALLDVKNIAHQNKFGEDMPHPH
Description: Tubulin Acetylation Induction by Novel Compounds: Tubulin Acetylation Cytoblot Assay.
Tubulin acetylation is a PD marker for HDAC6 inhibition. The extent of tubulin acetylation represents the inhibitory effect on HDAC6.
Novel compounds were tested for their ability to inhibit HDAC6 using a cell-based deacetylation assay. Tubulin acetylation was detected by the anti-acetylated tubulin antibody (Sigma) and horse radish peroxidase (HRP) conjugated secondary antibody (KangChen Bio. Tech.). […] 20 μl of diluted compound solution was transferred to the cell culture plate and incubated for 17-18 h. After medium removal and fixation by formaldehyde (3.7% paraformaldehyde in TBS), the cells in the plates were treated with 180 μl of −20° C. MeOH and incubated for 5 min at rt. The cell lysis was incubated with 75 μl of primary anti-acetylated tubulin antibody and secondary HRP conjugated antibody solution (1:750 anti-acetylated tubulin, 1:750 HRP conjugated anti-mouse IgG in antibody dilution buffer not containing sodium azide) for 4 h at 4° C. By adding the HRP substrate, enhanced chemiluminescence (ECL) reagent (GE Healthcare) generated luminescence corresponding to the level of tubulin acetylation. So that 75 μl of ECL was added into the wells and the luminescence from each well was immediately quantified by the plate reader. Based on the luminescence reading, the Tub-Ac EC50s against HDAC6 of the tested compounds were calculated by plotting the curve with XLfit4.0 software. Inhibition %=[signal(sample)−Mean(bottom)]×100/[Mean(top)−Mean(bottom)]

SMILES | EC50
O=C(NO)c1ccc(NC2CCN(c3cccc(C(F)(F)F)c3)C2=O)cc1 (stereo not shown) [Example 11, N-Hydroxy-4-[2-oxo-1-(3-trifluoromethyl-phenyl)-pyrrolidin-3-ylamino]-benzamide] | 8310 nM
CC(C)c1cccc(N2CCC(Nc3ccc(C(=O)NO)cc3)C2=O)c1 (stereo not shown) [Example 13, N-Hydroxy-4-[1-(3-isopropyl-phenyl)-2-oxo-pyrrolidin-3-ylamino]-benzamide] | 1530 nM
CC(C)c1ccc(N2CCC(Nc3ccc(C(=O)NO)cc3)C2=O)cc1 (stereo not shown) [Example 14, N-Hydroxy-4-[1-(4-isopropyl-phenyl)-2-oxo-pyrrolidin-3-ylamino]-benzamide] | 2610 nM
CC(C)(C)c1ccc(N2CCC(Nc3ccc(C(=O)NO)cc3)C2=O)cc1 (stereo not shown) [Example 16, 4-[1-(4-tert-Butyl-phenyl)-2-oxo-pyrrolidin-3-ylamino]-N-hydroxy-benzamide] | 1060 nM
CS(=O)(=O)c1ccc(N2CCC(Nc3ccc(C(=O)NO)cc3)C2=O)cc1 (stereo not shown) [Example 17, N-Hydroxy-4-[1-(4-methanesulfonyl-phenyl)-2-oxo-pyrrolidin-3-ylamino]-benzamide] | 11900 nM
N#Cc1cccc(N2CCC(Nc3ccc(C(=O)NO)cc3)C2=O)c1 (stereo not shown) [Example 18, 4-[1-(3-Cyano-phenyl)-2-oxo-pyrrolidin-3-ylamino]-N-hydroxy-benzamide] | 4310 nM
N#Cc1ccc(N2CCC(Nc3ccc(C(=O)NO)cc3)C2=O)cc1 (stereo not shown) [Example 19, 4-[1-(4-Cyano-phenyl)-2-oxo-pyrrolidin-3-ylamino]-N-hydroxy-benzamide] | 3140 nM
O=C(NO)c1ccc(NC2CCN(c3ccc(F)c(Cl)c3)C2=O)cc1 (stereo not shown) [Example 20, 4-[1-(3-Chloro-4-fluoro-phenyl)-2-oxo-pyrrolidin-3-ylamino]-N-hydroxy-benzamide] | 960 nM

molecular target: T2, recombinant human HDAC8 (Homo sapiens, UniProt Q9BY41); experiment: HDAC8 inhibition: recombinant HDAC8 fluorometric assay; assay type: biochemical; settings: recombinant human HDAC8, substrate Ac-Arg-His-Lys-Lys(ε-acetyl)-AMC; read-out: HDAC8 IC50
T2 construct: made in house; host or cells: insect cells
T2 sequence (Q9BY41 1-377): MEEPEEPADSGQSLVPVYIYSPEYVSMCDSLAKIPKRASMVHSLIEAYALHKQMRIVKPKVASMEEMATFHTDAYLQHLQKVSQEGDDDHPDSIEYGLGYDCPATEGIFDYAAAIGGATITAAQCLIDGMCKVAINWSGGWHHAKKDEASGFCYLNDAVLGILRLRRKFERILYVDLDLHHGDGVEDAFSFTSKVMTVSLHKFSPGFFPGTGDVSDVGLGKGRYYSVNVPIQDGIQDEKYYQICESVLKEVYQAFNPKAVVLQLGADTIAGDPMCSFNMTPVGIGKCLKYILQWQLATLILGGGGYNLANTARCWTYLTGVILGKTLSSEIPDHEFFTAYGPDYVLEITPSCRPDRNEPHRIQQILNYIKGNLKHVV
Description: HDAC8 Inhibition by Novel Compounds: Recombinant HDAC8 Fluorometric Assay.
A competitive inhibitory assay of HDAC8 was carried out by using recombinant HDAC8 and a commercial substrate Ac-Arg-His-Lys-Lys(ε-acetyl)-AMC.
Compounds were tested for their ability to inhibit histone deacetylase 8 using an in vitro deacetylation assay. The enzyme source for this assay was recombinant human HDAC8 protein expressed and purified from insect cells. […] The substrate consisted of a commercial product Ac-Arg-His-Lys-Lys(ε-acetyl)-AMC (substrate is available from Cayman Chemical). […] 1 μl of half-log diluted compounds were added into wells and incubated for 15 min at rt. After that, 8 μl of substrate solution was transferred to the wells and incubated for 30 min at rt. After deacetylation of the substrate by incubation with HDAC8 enzyme, subsequent exposure to a developing reagent produced a fluorophore that was directly proportional to the level of deacetylation. […] The fluorescence signal was measured by a FlexStation3 plate reader (excitation wave length 340-360 nm; emission wave length 440-465 nm). The HDAC8 IC50 was calculated after normalization and curve fitting using XLfit4.0 software. Inhibition %=[Mean(top)−signal(sample)]×100/[Mean(top)−Mean(bottom)].

SMILES | IC50
O=C(NO)c1ccc(NC2CCN(c3cccc(C(F)(F)F)c3)C2=O)cc1 (stereo not shown) [Example 11, N-Hydroxy-4-[2-oxo-1-(3-trifluoromethyl-phenyl)-pyrrolidin-3-ylamino]-benzamide] | 2230 nM
CC(C)c1cccc(N2CCC(Nc3ccc(C(=O)NO)cc3)C2=O)c1 (stereo not shown) [Example 13, N-Hydroxy-4-[1-(3-isopropyl-phenyl)-2-oxo-pyrrolidin-3-ylamino]-benzamide] | 740 nM
CC(C)c1ccc(N2CCC(Nc3ccc(C(=O)NO)cc3)C2=O)cc1 (stereo not shown) [Example 14, N-Hydroxy-4-[1-(4-isopropyl-phenyl)-2-oxo-pyrrolidin-3-ylamino]-benzamide] | 3180 nM
CC(C)(C)c1ccc(N2CCC(Nc3ccc(C(=O)NO)cc3)C2=O)cc1 (stereo not shown) [Example 16, 4-[1-(4-tert-Butyl-phenyl)-2-oxo-pyrrolidin-3-ylamino]-N-hydroxy-benzamide] | 1870 nM
CS(=O)(=O)c1ccc(N2CCC(Nc3ccc(C(=O)NO)cc3)C2=O)cc1 (stereo not shown) [Example 17, N-Hydroxy-4-[1-(4-methanesulfonyl-phenyl)-2-oxo-pyrrolidin-3-ylamino]-benzamide] | 1190 nM
N#Cc1cccc(N2CCC(Nc3ccc(C(=O)NO)cc3)C2=O)c1 (stereo not shown) [Example 18, 4-[1-(3-Cyano-phenyl)-2-oxo-pyrrolidin-3-ylamino]-N-hydroxy-benzamide] | 1620 nM
N#Cc1ccc(N2CCC(Nc3ccc(C(=O)NO)cc3)C2=O)cc1 (stereo not shown) [Example 19, 4-[1-(4-Cyano-phenyl)-2-oxo-pyrrolidin-3-ylamino]-N-hydroxy-benzamide] | 1050 nM
O=C(NO)c1ccc(NC2CCN(c3ccc(F)c(Cl)c3)C2=O)cc1 (stereo not shown) [Example 20, 4-[1-(3-Chloro-4-fluoro-phenyl)-2-oxo-pyrrolidin-3-ylamino]-N-hydroxy-benzamide] | 1210 nM

Source: patent US8404738B2 (Hoffmann-La Roche Inc., priority 2011, dated 2013)
